In paper PMC11990879, “Anticandidal Activity of Lipopeptides Containing an LL-37-Derived Peptide Fragment KR12” (Molecules, 2025):
≈ marks a conversion by molar mass, not a printed value. Read-outs that look alike come from different tables or passages of the source. Marks after values point to notes of the source that are not given here. Where a SMILES comes first, the peptide text is derived from it. The star is where a group is joined. Myristoyl = CCCCCCCCCCCCCC(=O)*; Lauroyl = CCCCCCCCCCCC(=O)*; Octanoyl = CCCCCCCC(=O)*

Tests used:
C. albicans ATCC 10231 [1] = assay: microbe, parasite or virus in culture; assay type: cell-based, Candida albicans; conditions: Candida albicans, ATCC10231; C. albicans; RPMI 1640, inoculum ca. 5 × 10^3 CFU/mL, range 0.5–256 mg/L, 48 h, 25 °C, read visually, three times on three days; read-out: Minimum inhibitory concentration (MIC), C. albicans
Procedure: (§1) Fungal strains were purchased from the Polish Collection of Microorganisms (Polish Academy of Science, Wroclaw, Poland). Four reference strains of Candida (C. albicans ATCC 10231, C. glabrata ATCC 15126, C. lypolytica PCM 2680, and C. tropicalis PCM 2680) were cultured on the Dextrose Sabouraud Agar (DSA, Neogen, Lansing, MI, USA). Before performing the assays, the fungi were cultured in a Sabouraud dextrose broth (DSB, Neogen, Lansing, MI, USA) for 48 h under aerobic conditions at 25 °C. Afterward, the fungal cultures were centrifuged (2500 rpm, 10 min) and resuspended in the appropriate liquid medium for appropriate inoculums for the performed assays.
(§2) The strains cultured described in Section 4.1 were suspended in the Roswell Park Memorial Institute 1640 Medium (RPMI, Sigma-Aldrich, St. Louis, MO, USA) at an initial inoculum of ca. 5 × 10^3 CFU/mL. The stock solutions (1024 mg/L) of tested compounds in RPMI were added to 96-well polystyrene plates and diluted serially to well no. 10, leaving wells 11 and 12 for fertility and sterility controls. The tested Candida strains were exposed to graded concentrations (range 0.5–256 mg/L) of the lipopeptides and conventional antifungals (benzalkonium chloride, fluconazole, and nystatin) for 48 h under aerobic conditions at 25 °C. After incubation, the results were read visually.

C. albicans ATCC 10231 [2] = assay: microbe, parasite or virus in culture; assay type: cell-based, Candida albicans; conditions: Candida albicans, ATCC10231, MIC wells and two higher concentrations seeded on DSA, 48 h, 25 °C, read visually, three times, read-out: Minimum fungicidal concentration (MFC), C. albicans
Procedure: as §1, §2
(§3) Then the results were read visually. Both MIC as well as the MFC assays were performed threetimes on three different days.

C. glabrata ATCC 15126 [3] = assay: microbe, parasite or virus in culture; assay type: cell-based, Candida glabrata; conditions: Nakaseomyces glabratus, ATCC15126; first C. glabrata column; RPMI 1640, inoculum ca. 5 × 10^3 CFU/mL, range 0.5–256 mg/L, 48 h, 25 °C, read visually, three times on three days; read-out: Minimum inhibitory concentration (MIC), C. glabrata
Procedure: as §1, §2

C. glabrata ATCC 15126 [4] = assay: microbe, parasite or virus in culture; assay type: cell-based, Candida glabrata; conditions: Nakaseomyces glabratus, ATCC15126, MIC wells and two higher concentrations seeded on DSA, 48 h, 25 °C, read visually, three times, read-out: Minimum fungicidal concentration (MFC), C. glabrata
Procedure: as §1, §2, §3

C. lypolytica PCM 2680 [5] = assay: microbe, parasite or virus in culture; assay type: cell-based, Candida lipolytica; conditions: Yarrowia lipolytica, PCM2680, RPMI 1640, inoculum ca. 5 × 10^3 CFU/mL, range 0.5–256 mg/L, 48 h, 25 °C, read visually, three times on three days, read-out: Minimum inhibitory concentration (MIC), C. lipolytica
Procedure: as §1, §2

C. lypolytica PCM 2680 [6] = assay: microbe, parasite or virus in culture; assay type: cell-based, Candida lipolytica; conditions: Yarrowia lipolytica, PCM2680, MIC wells and two higher concentrations seeded on DSA, 48 h, 25 °C, read visually, three times, read-out: Minimum fungicidal concentration (MFC), C. lipolytica
Procedure: as §1, §2, §3

C. tropicalis PCM 2680 [7] = assay: microbe, parasite or virus in culture; assay type: cell-based, Candida tropicalis; conditions: Candida tropicalis, PCM2680; C. tropicalis; RPMI 1640, inoculum ca. 5 × 10^3 CFU/mL, range 0.5–256 mg/L, 48 h, 25 °C, read visually, three times on three days; read-out: Minimum inhibitory concentration (MIC), C. tropicalis
Procedure: as §1, §2

C. tropicalis PCM 2680 [8] = assay: microbe, parasite or virus in culture; assay type: cell-based, Candida tropicalis; conditions: Candida tropicalis, PCM2680, MIC wells and two higher concentrations seeded on DSA, 48 h, 25 °C, read visually, three times, read-out: Minimum fungicidal concentration (MFC), C. tropicalis
Procedure: as §1, §2, §3

[9] = system: C. albicans biofilms cultured on polystyrene; assay type: cell-based, Candida albicans
Procedure: as §1
Fungal suspensions in DSB were added to the wells at initial inoculums of ca. 5 × 10^6 CFU/mL and incubated under aerobic conditions, at 25 °C for 24 h, 48 h, and 72 h, in order to grow candidal biofilms of different maturity. After the appropriate time of incubation, the wells were washed with phosphoric buffered (PBS), and fresh RPMI medium supplemented with antifungals and the lipopeptides at graded concentrations (range […]) were added. The fungal biofilms were exposed to the compounds for 24 h (aerobic conditions, 25 °C). After the exposure to antifungals, the content of the wells was aspirated and a 0.01% solution of resazurin (Sigma-Aldrich, St. Louis, MO, USA) in DSB was added. Resazurin (blue) was applied as a cell viability reagent, which upon contact with living cells is reduced to a pink resorufin. The samples with the dye were incubated for 1 h at 25 °C and the absorbance was measured at 570 and 600 nm with a microplate reader (Thermo Fisher Scientific, Waltham, MA, USA). The assays were performed four times on four different days. The results are presented as the means of the measured percentage of metabolic activity (MA) of fungi in the well when compared with positive (sample with Candida in DSB) and negative controls (pure DSB), which were taken as 100% and 0%, respectively. The MA of Candida in the samples was measured according to the following formula:MA(%) = (ΔAbs of sample − ΔAbs of negative control)/(ΔAbs of positive control − ΔAbs of negative control);(1) ΔAbs = absorbance at 570 nm − absorbance at 600 nm.(2)
The MBEC was taken as the lowest concentration of antifungal which allowed us to reduce the metabolism of fungal cells to 10% (or less) of the positive control.

[10] = system: Candida strains (C. albicans, C. glabrata, C. lipolytica, C. tropicalis); assay type: cell-based; conditions: for MIC, range over the tested strains: 48 h
Procedure: as §1, §2, §3

[11] = system: C. albicans biofilms cultured on polystyrene; assay type: cell-based, Candida albicans; conditions: C. albicans biofilms of 24, 48 and 72 h, up to 512 mg/L
human red blood cells = conditions: cited from earlier work
Excerpt: Table 2 Minimum inhibitory concentrations (MIC) and minimum fungicidal concentrations (MFC) determined for peptides and reference antifungals [g/L]. The highest antimicrobial activity is marked in green, medium values in yellow, while the weakest antifungal activity is marked in red. Minimum hemolytic concentration (MHC5%—causing hemolysis of 5% of human red blood cells) determined in previous stu | column: MHC5%

[12] = system: Staphylococcus aureus biofilm; conditions: previous study; ref [21]; cited from earlier work
Excerpt: Lipidation has proven to be an effective strategy for improving the microbiological properties of the KR12-NH2 peptide. […] The influence of the structure of substituted fatty acids as well as the lipidation pattern was noticed. Among derivatives containing linear fatty acid residues, an analog with octanoic acid turned out to be the most promising antibacterial agent. The C8-KR12-NH2 peptide (compound IV) inhibited the growth of both Gram-p ...

[13] = biofilms cultured on polystyrene, 24 h
[14] = biofilms cultured on polystyrene, 48 h
[15] = biofilms cultured on polystyrene, 72 h

| MIC (C. albicans ATCC 10231 [1]) [µg/mL] | MIC (C. glabrata ATCC 15126 [3]) [µg/mL] | MIC (C. lypolytica PCM 2680 [5]) [µg/mL] | MIC (C. tropicalis PCM 2680 [7]) [µg/mL] | MIC, range over the tested strains [10] [µg/mL] | SMILES | MFC (C. albicans ATCC 10231 [2]) [µg/mL] | MFC (C. glabrata ATCC 15126 [4]) [µg/mL] | MFC (C. lypolytica PCM 2680 [6]) [µg/mL] | MFC (C. tropicalis PCM 2680 [8]) [µg/mL] | MBEC 24 h ([9]; C. albicans biofilm cultured on polystyrene for 24 h, exposure 24 h, 25 °C, RPMI, resazurin, metabolic activity reduced to 10% or less, four times on four days) | MBEC 48 h ([9]; C. albicans biofilm cultured on polystyrene for 48 h, exposure 24 h, 25 °C, RPMI, resazurin, metabolic activity reduced to 10% or less, four times on four days) | MBEC 72 h ([9]; C. albicans biofilm cultured on polystyrene for 72 h, exposure 24 h, 25 °C, RPMI, resazurin, metabolic activity reduced to 10% or less, four times on four days) | Fungicidal activity (MFC relative to MIC) ([10]; MFCs equal to or twice as high as the corresponding MICs) | Antibiofilm activity against any type of biofilm [11] | MHC5% (minimum hemolytic concentration causing hemolysis of 5% of human red blood cells) (human red blood cells) [g/L] | MBEC against Staphylococcus aureus biofilm [12] [mg/L] | MBEC 24 h [9, 13] [mg/L] | MBEC 48 h [9, 14] | MBEC 72 h [9, 15] |
| --- | --- | --- | --- | --- | --- | --- | --- | --- | --- | --- | --- | --- | --- | --- | --- | --- | --- | --- | --- |
| 4000 (≈ 13.1 mM) | 500 (≈ 1.63 mM) | 2000 (≈ 6.53 mM) | 2000 (≈ 6.53 mM) |  | OC(Cn1cncn1)(Cn1cncn1)c1ccc(F)cc1F [Fluconazole, fluconazole, reference compound] | 8000 (≈ 26.1 mM) | 2000 (≈ 6.53 mM) | 8000 (≈ 26.1 mM) | 8000 (≈ 26.1 mM) | >512 * mg/L | >512 * mg/L | >512 * mg/L | fungicidal activity against C. albicans and C. glabrata | showed no antibiofilm activity |  |  |  |  |  |
|  |  |  |  |  | CCCCCCCC(=O)N[C@@H](CCCCN)C(=O)N[C@@H](CCCNC(=N)N)C(=O)N[C@H](C(=O)N[C@H](C(=O)N[C@@H](CCC(N)=O)C(=O)N[C@@H](CCCNC(=N)N)C(=O)N[C@H](C(=O)N[C@@H](CCCCN)C(=O)N[C@@H](CC(=O)O)C(=O)N[C@@H](Cc1ccccc1)C(=O)N[C@@H](CC(C)C)C(=O)N[C@@H](CCCNC(=N)N)C(N)=O)[C@@H](C)CC)C(C)C)[C@@H](C)CC [IV, C8-KR12-NH2] (Octanoyl-KRIVQRIKDFLR-NH2) |  |  |  |  |  |  |  |  |  | 64 | 4 to 16 |  |  |  |
|  |  |  |  | 4 to 8 | CCCCCCCCCCCC(=O)N[C@@H](CCCCN)C(=O)N[C@@H](CCCNC(=N)N)C(=O)N[C@H](C(=O)N[C@H](C(=O)N[C@@H](CCC(N)=O)C(=O)N[C@@H](CCCNC(=N)N)C(=O)N[C@H](C(=O)N[C@@H](CCCCN)C(=O)N[C@@H](CC(=O)O)C(=O)N[C@@H](Cc1ccccc1)C(=O)N[C@@H](CC(C)C)C(=O)N[C@@H](CCCNC(=N)N)C(N)=O)[C@@H](C)CC)C(C)C)[C@@H](C)CC [VI, C12-KR12-NH2] (Lauroyl-KRIVQRIKDFLR-NH2) |  |  |  |  |  |  |  |  |  | 4 | 64 to 256 | 512 | >512 * mg/L | >512 * mg/L |
|  |  |  |  | 4 to 8 | CCCCCCCCCCCCCC(=O)N[C@@H](CCCCN)C(=O)N[C@@H](CCCNC(=N)N)C(=O)N[C@H](C(=O)N[C@H](C(=O)N[C@@H](CCC(N)=O)C(=O)N[C@@H](CCCNC(=N)N)C(=O)N[C@H](C(=O)N[C@@H](CCCCN)C(=O)N[C@@H](CC(=O)O)C(=O)N[C@@H](Cc1ccccc1)C(=O)N[C@@H](CC(C)C)C(=O)N[C@@H](CCCNC(=N)N)C(N)=O)[C@@H](C)CC)C(C)C)[C@@H](C)CC [VII, C14-KR12-NH2] (Myristoyl-KRIVQRIKDFLR-NH2) |  |  |  |  |  |  |  |  |  | 4 | 64 to 256 | 256 | 256 mg/L | 512 mg/L |
